Paper PMC7854658, “Structural basis for ligand recognition of the neuropeptide Y Y2 receptor” (Nature Communications, 2021)
Substitutions are numbered along the chain they refer to. Values joined by “and” are separate entries in the source; they are usually repeats but may differ in a detail not shown here. Equal entries are not always repeated.

Assays:
Experiment in all cases: NPY-induced IP accumulation (IP-One), mutant
Assay type in all cases: cell-based
[1] = molecular target: T1, Y2R mutant D292^6.59N (Homo sapiens, UniProt P49146, D292N)
T1 construct: expressed in transfected cells; host or cells: HEK293
T1 sequence (P49146 1-381 D292N): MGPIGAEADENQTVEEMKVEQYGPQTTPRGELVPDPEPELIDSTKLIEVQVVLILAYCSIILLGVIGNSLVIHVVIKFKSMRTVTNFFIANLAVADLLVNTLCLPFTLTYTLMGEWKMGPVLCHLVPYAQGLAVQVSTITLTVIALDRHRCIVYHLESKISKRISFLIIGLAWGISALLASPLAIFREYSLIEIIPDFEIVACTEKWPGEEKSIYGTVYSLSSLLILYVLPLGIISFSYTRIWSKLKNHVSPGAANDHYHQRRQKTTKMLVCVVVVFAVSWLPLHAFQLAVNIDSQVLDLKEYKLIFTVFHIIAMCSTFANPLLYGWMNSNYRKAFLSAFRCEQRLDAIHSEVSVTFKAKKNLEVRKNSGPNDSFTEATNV
Description: (§1) The plasmid hY2R_eYFP_pVitro2 encoding the WT Y2R and a fluorophore for investigating the receptor localization was used as template for the generation of receptor point mutations as previously described. Mutagenesis PCR was performed using the Phusion High-Fidelity Polymerase (Thermo Fisher Scientific, Waltham, MA, USA). […] The preparations of the plasmid DNA were performed using the Wizard plus Mini or Midi DNA purification kit (Promega, Madison, WI, USA).
(§2) To determine the contribution of residues to antagonist binding, IP-One accumulation assays (Cisbio, Codolet, France) were performed. HEK293 cells were seeded into six-well plates and transiently cotransfected with 3200 ng of receptor plasmid DNA and 800 ng of the chimeric G protein (Gα∆6qi4myr) to redirect the Gαi signaling pathway to the Gαq phospholipase C pathway. Transient transfection was carried out using Metafectene as transfection reagent according to the manufacturer’s protocol (Biontex, Munich, Germany) over night. The cells were then reseeded into white 384-well microplates (Greiner Bio-One, Kremsmünster, Austria) at a density of 15,000 cells per well and grown for additional 24 h.
(§3) All dilutions were performed in HBSS containing 20 mM LiCl (stimulation buffer) and DMSO with a final concentration of 0.01%.
(§4) To determine the amount of cellular IPs, the FRET acceptor (IP1-d2) and the FRET donor (anti-IP1-Cryptate) were reconstituted and diluted in lysis and detection buffer (1:20) as described in the manufacturer’s protocol. Three microliters of both solutions were added, and the cells were incubated on a tumbler for 60 min.

[2] = molecular target: T2, Y2R mutant Q288^6.55A (Homo sapiens, UniProt P49146, Q288A)
T2 construct: expressed in transfected cells; host or cells: HEK293
T2 sequence (P49146 1-381 Q288A): T1 sequence (P49146 1-381 D292N) with Q288A, N292D
Description: as §1, §2, §3, §4

[3] = molecular target: T3, Y2R mutant S220^5.39A (Homo sapiens, UniProt P49146, S220A)
T3 construct: expressed in transfected cells; host or cells: HEK293
T3 sequence (P49146 1-381 S220A): T1 sequence (P49146 1-381 D292N) with S220A, N292D
Description: as §1, §2, §3, §4

[4] = molecular target: T4, Y2R mutant T111^2.65A (Homo sapiens, UniProt P49146, T111A)
T4 construct: expressed in transfected cells; host or cells: HEK293
T4 sequence (P49146 1-381 T111A): T1 sequence (P49146 1-381 D292N) with T111A, N292D
Description: as §1, §2, §3, §4

[5] = molecular target: T5, Y2R mutant T308^7.36A (Homo sapiens, UniProt P49146, T308A)
T5 construct: expressed in transfected cells; host or cells: HEK293
T5 sequence (P49146 1-381 T308A): T1 sequence (P49146 1-381 D292N) with N292D, T308A
Description: as §1, §2, §3, §4

[6] = 1 μM antagonist, source data Fig. 3
[7] = EC50(NPY + 1 μM antagonist)/EC50(NPY)
[8] = EC50 ratio (WT)/EC50 ratio (mutant)

- Average EC50 ratio [1, 6]: 66.7
- EC50 ratio (individual experiments) [1, 6]: 70.5 and 62.9
- EC50 ratio [1, 7]: 71 and 63
- Average EC50 ratio [2, 6]: 143.2
- EC50 ratio (individual experiments) [2, 6]: 101.5 and 185.0
- EC50 ratio [2, 7]: 102 and 185
- Ratio change (fold) [2, 8]: 1.6 fold and 0.9 fold
- Average EC50 ratio [3, 6]: 502.4
- EC50 ratio (individual experiments) [3, 6]: 515.1 and 489.7
- EC50 ratio [3, 7]: 515 and 490
- Ratio change (fold) [3, 8]: 0.3 fold
- Average EC50 ratio [4, 6]: 247.7
- EC50 ratio (individual experiments) [4, 6]: 265.4 and 230.1
- EC50 ratio [4, 7]: 265 and 230
- Ratio change (fold) [4, 8]: 0.6 fold and 0.7 fold
- Average EC50 ratio [5, 6]: 233.8
- EC50 ratio (individual experiments) [5, 6]: 248.2 and 219.5
- EC50 ratio [5, 7]: 248 and 219
- Ratio change (fold) [5, 8]: 0.6 fold and 0.7 fold
SMILES: N=C(N)NCCC[C@H](NC(=O)CC1(CC(=O)N2CCN(C3c4ccccc4NC(=O)c4ccccc43)CC2)CCCC1)C(=O)NCCn1c(=O)n(-c2ccccc2)n(-c2ccccc2)c1=O (stereo partly shown) [BIIE0246]
